Among the data in publication PMC5564600 (Oncotarget, 2017) are remaining activity values, retold here.

Structures are written as SMILES.

Holding throughout (assay): biochemical
Holding throughout (format): binding

For test [1], the target named is T1, panel of 442 kinases (Homo sapiens, UniProt Q9P2K8, S808G).
T1 construct: purchased Ambit Biosciences (scanMAXX KINOMEscan)
The following applies: kinase GCN2(Kin.Dom.2,S808G); for remaining activity at 1 µM: read-out: % of control at 1 µM.

Test [2] concerns the target T2, panel of 442 kinases (Homo sapiens, UniProt Q13131).
T2 construct: purchased Ambit Biosciences (scanMAXX KINOMEscan)
As to conditions: AMPK-alpha1; for remaining activity at 1 µM: read-out: % of control at 1 µM.

Test [3] concerns the target T3, panel of 442 kinases (Homo sapiens, UniProt Q9UKI8).
T3 construct: purchased Ambit Biosciences (scanMAXX KINOMEscan)
T3 sequence (Q9UKI8 1-766): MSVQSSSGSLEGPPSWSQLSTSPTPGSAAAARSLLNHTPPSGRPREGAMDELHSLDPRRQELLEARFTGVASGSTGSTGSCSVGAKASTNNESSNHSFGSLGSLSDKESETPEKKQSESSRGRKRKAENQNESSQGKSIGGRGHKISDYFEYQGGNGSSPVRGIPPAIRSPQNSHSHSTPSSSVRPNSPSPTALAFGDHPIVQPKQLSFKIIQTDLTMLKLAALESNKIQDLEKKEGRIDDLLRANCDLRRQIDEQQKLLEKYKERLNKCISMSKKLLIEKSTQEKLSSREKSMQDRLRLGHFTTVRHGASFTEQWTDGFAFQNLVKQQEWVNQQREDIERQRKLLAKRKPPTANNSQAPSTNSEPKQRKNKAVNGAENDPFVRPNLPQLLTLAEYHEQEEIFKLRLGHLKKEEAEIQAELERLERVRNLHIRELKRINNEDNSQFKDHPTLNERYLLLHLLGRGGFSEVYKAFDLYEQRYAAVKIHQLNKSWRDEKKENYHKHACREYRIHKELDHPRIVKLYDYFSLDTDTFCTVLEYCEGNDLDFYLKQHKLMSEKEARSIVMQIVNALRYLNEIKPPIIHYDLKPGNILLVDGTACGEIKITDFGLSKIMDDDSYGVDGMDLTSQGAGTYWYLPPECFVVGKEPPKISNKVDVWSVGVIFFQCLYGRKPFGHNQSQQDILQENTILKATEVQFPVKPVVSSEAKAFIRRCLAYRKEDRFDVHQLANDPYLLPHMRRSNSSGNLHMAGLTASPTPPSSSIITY
As to conditions: kinase TLK1; for remaining activity at 1 µM: read-out: TLK1 (% of control at 1 µM).

Test [4] has as its target T4, panel of 442 kinases (Homo sapiens, UniProt Q8WU08).
T4 construct: purchased Ambit Biosciences (scanMAXX KINOMEscan)
The following applies: kinase YANK1; for remaining activity at 1 µM: read-out: YANK1 (% of control at 1 µM).

Test [5] concerns the target T5, panel of 442 kinases (Homo sapiens, UniProt O95747).
T5 construct: purchased Ambit Biosciences (scanMAXX KINOMEscan)
As to conditions: kinase OSR1; for remaining activity at 1 µM: read-out: % of control at 1 µM.

The target of test [6] is T6, panel of 442 kinases (Homo sapiens, UniProt Q8WTQ7).
T6 construct: purchased Ambit Biosciences (scanMAXX KINOMEscan)
T6 sequence (Q8WTQ7 1-553): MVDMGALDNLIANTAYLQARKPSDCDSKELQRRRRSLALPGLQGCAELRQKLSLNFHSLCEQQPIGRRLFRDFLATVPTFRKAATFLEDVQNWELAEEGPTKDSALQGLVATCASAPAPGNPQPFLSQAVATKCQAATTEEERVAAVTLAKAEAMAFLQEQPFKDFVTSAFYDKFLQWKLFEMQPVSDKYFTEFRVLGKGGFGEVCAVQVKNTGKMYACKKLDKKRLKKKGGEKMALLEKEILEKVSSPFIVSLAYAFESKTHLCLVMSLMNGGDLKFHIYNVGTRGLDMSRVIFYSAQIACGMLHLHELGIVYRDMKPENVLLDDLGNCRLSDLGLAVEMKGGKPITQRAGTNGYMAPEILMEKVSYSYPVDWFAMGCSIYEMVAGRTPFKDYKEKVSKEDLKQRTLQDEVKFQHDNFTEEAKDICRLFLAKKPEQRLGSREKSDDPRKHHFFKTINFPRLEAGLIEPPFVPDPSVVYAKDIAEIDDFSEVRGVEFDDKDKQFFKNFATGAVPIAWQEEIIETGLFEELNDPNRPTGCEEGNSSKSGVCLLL
As to conditions: kinase GRK7; for remaining activity at 1 µM: read-out: % of control at 1 µM.

Test [7] concerns the target T7, panel of 442 kinases (Homo sapiens, UniProt Q14680).
T7 construct: purchased Ambit Biosciences (scanMAXX KINOMEscan)
The following applies: kinase MELK; for remaining activity at 1 µM: read-out: % of control at 1 µM.

The target in test [8] is T8, panel of 442 kinases (Homo sapiens, UniProt P29322).
T8 construct: purchased Ambit Biosciences (scanMAXX KINOMEscan)
T8 sequence (P29322 28-1005): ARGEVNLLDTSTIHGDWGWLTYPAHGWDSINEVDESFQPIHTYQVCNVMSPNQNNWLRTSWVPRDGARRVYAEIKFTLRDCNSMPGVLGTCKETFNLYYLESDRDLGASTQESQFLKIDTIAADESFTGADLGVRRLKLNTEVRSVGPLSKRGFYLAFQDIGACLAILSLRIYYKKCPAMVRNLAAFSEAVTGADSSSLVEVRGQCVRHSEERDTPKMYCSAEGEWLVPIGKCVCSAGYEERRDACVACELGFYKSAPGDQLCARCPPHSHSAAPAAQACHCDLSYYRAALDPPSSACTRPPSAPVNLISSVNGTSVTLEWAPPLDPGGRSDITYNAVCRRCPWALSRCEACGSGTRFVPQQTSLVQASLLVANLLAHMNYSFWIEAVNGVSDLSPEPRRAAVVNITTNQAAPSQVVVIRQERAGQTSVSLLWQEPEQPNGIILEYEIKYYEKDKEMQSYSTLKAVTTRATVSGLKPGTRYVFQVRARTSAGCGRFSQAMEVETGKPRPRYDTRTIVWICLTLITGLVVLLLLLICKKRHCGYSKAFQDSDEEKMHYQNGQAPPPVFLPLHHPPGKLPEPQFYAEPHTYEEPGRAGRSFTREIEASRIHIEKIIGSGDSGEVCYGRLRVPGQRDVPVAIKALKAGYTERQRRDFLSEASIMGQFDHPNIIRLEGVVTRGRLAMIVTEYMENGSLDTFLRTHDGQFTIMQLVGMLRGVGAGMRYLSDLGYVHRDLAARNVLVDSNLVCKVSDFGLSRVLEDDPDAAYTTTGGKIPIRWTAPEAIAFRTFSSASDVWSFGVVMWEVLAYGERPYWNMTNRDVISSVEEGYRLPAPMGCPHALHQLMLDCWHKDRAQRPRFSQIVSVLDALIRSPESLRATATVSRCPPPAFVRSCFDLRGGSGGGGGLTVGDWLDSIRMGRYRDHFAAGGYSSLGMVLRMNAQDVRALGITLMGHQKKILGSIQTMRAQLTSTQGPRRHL
As to conditions: EPHA8; for remaining activity at 1 µM: read-out: % of control at 1 µM.

[9] abbreviates: 10 µM, read-out: % of control at 10 µM.

T4 sequence (Q8WU08 whole entry): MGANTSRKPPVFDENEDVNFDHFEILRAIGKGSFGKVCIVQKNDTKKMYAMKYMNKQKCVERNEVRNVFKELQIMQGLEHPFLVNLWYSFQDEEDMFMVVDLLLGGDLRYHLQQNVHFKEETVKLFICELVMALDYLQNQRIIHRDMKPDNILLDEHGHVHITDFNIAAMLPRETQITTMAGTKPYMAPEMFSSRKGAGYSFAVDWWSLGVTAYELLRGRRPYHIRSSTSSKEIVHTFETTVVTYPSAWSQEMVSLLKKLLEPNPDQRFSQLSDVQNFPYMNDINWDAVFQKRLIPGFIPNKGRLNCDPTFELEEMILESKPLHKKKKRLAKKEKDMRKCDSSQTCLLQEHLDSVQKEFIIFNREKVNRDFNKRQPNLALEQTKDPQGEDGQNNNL
T2 sequence (Q13131 whole entry): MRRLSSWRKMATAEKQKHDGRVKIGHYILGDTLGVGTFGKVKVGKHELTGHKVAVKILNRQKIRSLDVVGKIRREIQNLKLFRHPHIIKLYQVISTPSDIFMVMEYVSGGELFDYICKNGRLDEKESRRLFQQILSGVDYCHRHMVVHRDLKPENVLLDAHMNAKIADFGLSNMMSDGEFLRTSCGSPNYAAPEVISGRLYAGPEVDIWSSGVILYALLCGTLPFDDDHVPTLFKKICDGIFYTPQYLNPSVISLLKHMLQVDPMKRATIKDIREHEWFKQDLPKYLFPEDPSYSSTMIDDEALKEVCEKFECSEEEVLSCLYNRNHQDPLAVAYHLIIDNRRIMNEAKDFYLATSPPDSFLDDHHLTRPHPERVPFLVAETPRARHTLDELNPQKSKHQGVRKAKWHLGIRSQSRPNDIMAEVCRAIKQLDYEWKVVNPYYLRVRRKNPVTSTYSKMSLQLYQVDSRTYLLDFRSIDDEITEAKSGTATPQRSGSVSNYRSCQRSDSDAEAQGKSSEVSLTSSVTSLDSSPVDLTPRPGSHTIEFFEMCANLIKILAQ
T1 sequence (Q9P2K8 whole entry S808G): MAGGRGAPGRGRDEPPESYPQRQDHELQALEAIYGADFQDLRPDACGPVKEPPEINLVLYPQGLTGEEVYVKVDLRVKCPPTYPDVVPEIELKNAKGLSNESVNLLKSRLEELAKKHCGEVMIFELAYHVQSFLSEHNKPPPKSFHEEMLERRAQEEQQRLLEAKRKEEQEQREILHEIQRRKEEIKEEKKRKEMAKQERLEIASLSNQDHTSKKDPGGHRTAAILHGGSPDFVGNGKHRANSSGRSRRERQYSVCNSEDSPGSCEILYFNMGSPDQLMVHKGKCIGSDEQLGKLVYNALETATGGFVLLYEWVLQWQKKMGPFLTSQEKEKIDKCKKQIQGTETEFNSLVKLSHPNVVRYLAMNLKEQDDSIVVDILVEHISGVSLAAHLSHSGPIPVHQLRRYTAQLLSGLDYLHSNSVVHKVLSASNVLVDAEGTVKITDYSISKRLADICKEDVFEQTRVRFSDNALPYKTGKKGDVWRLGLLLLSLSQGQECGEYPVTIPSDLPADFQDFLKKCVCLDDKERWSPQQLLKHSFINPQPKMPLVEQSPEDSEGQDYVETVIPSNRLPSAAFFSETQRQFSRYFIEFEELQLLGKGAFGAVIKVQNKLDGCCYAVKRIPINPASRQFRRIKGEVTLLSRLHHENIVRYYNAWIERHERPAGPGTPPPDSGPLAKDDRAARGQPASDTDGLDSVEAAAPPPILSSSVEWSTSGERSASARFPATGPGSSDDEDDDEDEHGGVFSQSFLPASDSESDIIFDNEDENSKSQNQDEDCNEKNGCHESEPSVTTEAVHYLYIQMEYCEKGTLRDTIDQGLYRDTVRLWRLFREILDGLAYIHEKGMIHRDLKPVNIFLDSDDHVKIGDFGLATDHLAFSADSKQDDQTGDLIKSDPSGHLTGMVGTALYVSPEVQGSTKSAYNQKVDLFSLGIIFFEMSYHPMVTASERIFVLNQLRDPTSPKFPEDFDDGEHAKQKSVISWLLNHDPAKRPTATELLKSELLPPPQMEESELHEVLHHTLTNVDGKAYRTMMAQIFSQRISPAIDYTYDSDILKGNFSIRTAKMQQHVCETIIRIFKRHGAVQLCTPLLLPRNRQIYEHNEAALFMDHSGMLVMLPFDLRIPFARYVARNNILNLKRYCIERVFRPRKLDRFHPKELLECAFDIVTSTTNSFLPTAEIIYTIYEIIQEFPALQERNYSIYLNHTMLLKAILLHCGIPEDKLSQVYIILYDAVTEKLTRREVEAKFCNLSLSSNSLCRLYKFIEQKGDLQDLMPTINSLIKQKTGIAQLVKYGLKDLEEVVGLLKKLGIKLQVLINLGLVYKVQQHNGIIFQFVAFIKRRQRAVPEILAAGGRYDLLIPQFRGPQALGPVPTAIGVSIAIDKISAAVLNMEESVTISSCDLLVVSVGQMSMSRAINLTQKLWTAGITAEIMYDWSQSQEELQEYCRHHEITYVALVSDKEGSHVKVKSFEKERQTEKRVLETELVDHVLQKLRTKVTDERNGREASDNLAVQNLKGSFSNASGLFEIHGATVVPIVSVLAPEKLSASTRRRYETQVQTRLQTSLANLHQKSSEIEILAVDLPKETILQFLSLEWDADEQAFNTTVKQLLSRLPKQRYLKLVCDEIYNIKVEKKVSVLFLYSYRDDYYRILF
T7 sequence (Q14680 whole entry): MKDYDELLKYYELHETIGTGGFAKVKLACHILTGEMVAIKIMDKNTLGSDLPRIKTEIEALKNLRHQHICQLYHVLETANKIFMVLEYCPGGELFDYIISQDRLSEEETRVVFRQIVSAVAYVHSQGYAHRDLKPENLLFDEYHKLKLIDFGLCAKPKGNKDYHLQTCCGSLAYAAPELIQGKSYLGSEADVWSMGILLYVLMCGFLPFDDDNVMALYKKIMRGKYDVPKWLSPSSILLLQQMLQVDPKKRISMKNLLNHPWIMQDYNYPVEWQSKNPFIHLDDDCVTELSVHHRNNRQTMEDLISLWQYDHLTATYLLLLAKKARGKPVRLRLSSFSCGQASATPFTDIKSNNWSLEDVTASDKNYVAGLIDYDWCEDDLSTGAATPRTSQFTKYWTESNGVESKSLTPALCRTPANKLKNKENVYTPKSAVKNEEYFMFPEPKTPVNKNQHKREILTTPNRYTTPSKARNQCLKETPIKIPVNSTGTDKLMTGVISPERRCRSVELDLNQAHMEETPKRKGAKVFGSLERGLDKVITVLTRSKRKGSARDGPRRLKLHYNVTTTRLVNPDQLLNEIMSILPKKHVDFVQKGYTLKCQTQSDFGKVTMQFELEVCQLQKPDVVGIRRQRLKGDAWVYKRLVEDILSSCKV
T5 sequence (O95747 whole entry): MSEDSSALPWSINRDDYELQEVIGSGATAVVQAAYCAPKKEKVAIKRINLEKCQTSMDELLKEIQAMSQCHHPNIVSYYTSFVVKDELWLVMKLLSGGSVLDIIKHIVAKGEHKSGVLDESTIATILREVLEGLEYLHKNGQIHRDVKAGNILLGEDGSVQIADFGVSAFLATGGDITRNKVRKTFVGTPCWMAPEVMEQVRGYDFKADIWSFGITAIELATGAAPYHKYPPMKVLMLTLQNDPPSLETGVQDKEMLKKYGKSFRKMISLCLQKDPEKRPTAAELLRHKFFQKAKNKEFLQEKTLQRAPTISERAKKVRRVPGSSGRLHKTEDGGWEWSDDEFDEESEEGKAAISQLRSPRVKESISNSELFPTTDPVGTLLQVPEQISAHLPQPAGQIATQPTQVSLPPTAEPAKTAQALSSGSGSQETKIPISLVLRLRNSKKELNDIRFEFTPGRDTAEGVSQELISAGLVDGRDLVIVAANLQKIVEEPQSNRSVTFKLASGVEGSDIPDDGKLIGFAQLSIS

Consider `COc1ncc(-c2ccc3nccc(-c4ccnnc4)c3c2)cc1NS(=O)(=O)c1ccc(F)cc1F` [Omipalisib], for which the remaining activity at 1 µM at panel of 442 kinases [1] turned out to be 100%; on panel of 442 kinases [2] it was 100%; on panel of 442 kinases [3], 95%; at panel of 442 kinases [4], 100%; on panel of 442 kinases [5] it was 100%; on panel of 442 kinases [6] it was 100%. Further, the remaining activity at 1 µM on panel of 442 kinases [7] and at panel of 442 kinases [8] was 100% throughout.

`Cn1c(=O)n(-c2ccc(C(C)(C)C#N)cc2)c2c3cc(-c4cnc5ccccc5c4)ccc3ncc21` [Dactolisib, 2-methyl-2-[4-(3-methyl-2-oxo-8-quinolin-3-yl-2,3-dihydroimidazo[4,5-c]quinolin-1-yl)-phenyl] propionitrile]: the remaining activity at 1 µM at panel of 442 kinases [1] is 87%; on panel of 442 kinases [2] it was 97%; at panel of 442 kinases [3], 75%; on panel of 442 kinases [4], 100%; on panel of 442 kinases [5], 91%; at panel of 442 kinases [6] it was 92%. Further, the remaining activity at 1 µM was found to be 45% on panel of 442 kinases [7] and 94% on panel of 442 kinases [8].

As to `Nc1cc(C(F)(F)F)c(-c2cc(N3CCOCC3)nc(N3CCOCC3)n2)cn1` [Buparlisib], the remaining activity at 1 µM stood at 100% on panel of 442 kinases [1]; 96% on panel of 442 kinases [2]; 100% on panel of 442 kinases [3]; 100% on panel of 442 kinases [4]; 97% on panel of 442 kinases [5]; 77% on panel of 442 kinases [6]. The remaining activity at 1 µM on panel of 442 kinases [7] is 90%; at panel of 442 kinases [8], 100%. Moreover, the remaining activity at 10 µM was found to be 100% at panel of 442 kinases [1] (setting [9]); 100% at panel of 442 kinases [2] (setting [9]); 82% at panel of 442 kinases [3] (10 µM, read-out: TLK1 (% of control at 10 µM)); 100% at panel of 442 kinases [4] (10 µM, read-out: YANK1 (% of control at 10 µM)); 100% on panel of 442 kinases [5] (setting [9]); 100% on panel of 442 kinases [6] (setting [9]). Also, the remaining activity at 10 µM on panel of 442 kinases [7] (setting [9]) was found to be 91%; at panel of 442 kinases [8] (setting [9]) it was 100%.

Take `FC(F)c1nc2ccccc2n1-c1nc(N2CCOCC2)nc(N2CCOCC2)n1` [ZSTK474, 2-(difluoromethyl)-1-[4,6-di(4-morpholinyl)-1,3,5-triazin-2-yl]-1H-benzimidazole]: the remaining activity at 1 µM at panel of 442 kinases [1] is 89%; at panel of 442 kinases [2], 100%; on panel of 442 kinases [3], 100%; at panel of 442 kinases [4], 100%; on panel of 442 kinases [5], 82%; on panel of 442 kinases [6], 98%. The remaining activity at 1 µM at panel of 442 kinases [7] and on panel of 442 kinases [8] was 100% throughout.
